≈ marks a conversion by molar mass, not a printed value.
Columns and labels:
Streptococcus pneumoniae = test: Antibacterial activity against Streptococcus pneumoniae by micro-broth dilution assay; format: functional
Staphylococcus aureus = test: Antibacterial activity against Staphylococcus aureus by microbroth dilution assay; format: functional
[1] = Toxicity in human erythrocytes assessed as hemolysis upto 62.5 ug/mL; format: cell-based, Erythrocyte; settings: read-out: Activity
[2] = Toxicity in human erythrocytes assessed as hemolysis upto 3.91 ug/mL; format: cell-based, Erythrocyte; settings: read-out: Activity
Salmonella typhi [3] = test: Antibacterial activity against Salmonella typhi by microbroth dilution assay; format: functional, Salmonella enterica subsp. enterica serovar Typhi; settings: Salmonella enterica
Pseudomonas aeruginosa [4] = test: Antibacterial activity against Pseudomonas aeruginosa by microbroth dilution assay; format: functional
[5] = Toxicity in human erythrocytes assessed as hemolysis upto 250 ug/mL; format: cell-based; settings: erythrocyte
Aspergillus fumigatus [6] = test: Antifungal activity against Aspergillus fumigatus assessed as inhibition per disc by disc diffusion method; format: functional
Aspergillus fumigatus [7] = test: Antifungal activity against Aspergillus fumigatus assessed as inhibition per disc by microbroth dilution assay; format: functional
Aspergillus fumigatus [8] = test: Antifungal activity against Aspergillus fumigatus assessed as inhibition per disc by percent spore germination inhibition method; format: functional
Aspergillus flavus [9] = test: Antifungal activity against Aspergillus flavus assessed as inhibition per disc by disc diffusion method; format: functional
Aspergillus flavus [10] = test: Antifungal activity against Aspergillus flavus assessed as inhibition per disc by microbroth dilution assay; format: functional
Aspergillus flavus [11] = test: Antifungal activity against Aspergillus flavus assessed as inhibition per disc by percent spore germination inhibition method; format: functional
Aspergillus niger [12] = test: Antifungal activity against Aspergillus niger assessed as inhibition per disc by disc diffusion method; format: functional
Aspergillus niger [13] = test: Antifungal activity against Aspergillus niger assessed as inhibition per disc by microbroth dilution assay; format: functional
Aspergillus niger [14] = test: Antifungal activity against Aspergillus niger assessed as inhibition per disc by percent spore germination inhibition method; format: functional
Candida albicans [15] = test: Antifungal activity against Candida albicans assessed as inhibition per disc by percent growth inhibition assay; format: functional
Candida albicans [16] = test: Antifungal activity against Candida albicans at 31.25 ug/mL; format: functional
Pseudomonas aeruginosa [17] = test: Antibacterial activity against Pseudomonas aeruginosa at 31.25 ug/mL; format: functional
[18] = Toxicity in human erythrocytes assessed as hemolysis upto 1.70 ug/mL; format: cell-based, Erythrocyte; settings: read-out: Activity
Salmonella typhi [19] = test: Antibacterial activity against Salmonella typhi at 31.25 ug/mL; format: functional, Salmonella enterica subsp. enterica serovar Typhi; settings: Salmonella enterica
[20] = Toxicity in human erythrocytes assessed as hemolysis upto 4000 ug/mL; format: cell-based; settings: erythrocyte
Aspergillus fumigatus [21] = test: Antifungal activity against Aspergillus fumigatus at 5.85 ug/mL; format: functional

| Compound | MIC (Streptococcus pneumoniae) [µg/mL] | MIC (Staphylococcus aureus) [µg/mL] | MIC (Salmonella typhi [3]) [µg/mL] | MIC (Pseudomonas aeruginosa [4]) [µg/mL] | Activity [5] | MIC (Aspergillus fumigatus [6]) [µg] | MIC (Aspergillus fumigatus [7]) [µg/mL] | MIC (Aspergillus fumigatus [8]) [µg/mL] | MIC (Aspergillus flavus [9]) [µg] | MIC (Aspergillus flavus [10]) [µg/mL] | MIC (Aspergillus flavus [11]) [µg/mL] | MIC (Aspergillus niger [12]) [µg] | MIC (Aspergillus niger [13]) [µg/mL] | MIC (Aspergillus niger [14]) [µg/mL] | MIC (Candida albicans [15]) [µg/mL] | further results |
| --- | --- | --- | --- | --- | --- | --- | --- | --- | --- | --- | --- | --- | --- | --- | --- | --- |
| CN(C)[C@@H]1C(O)=C(C(N)=O)C(=O)[C@@]2(O)C(O)=C3C(=O)c4c(O)cccc4[C@@](C)(O)[C@H]3C[C@@H]12 [TETRACYCLINE] | 7.9 (≈ 17.8 µM) | 7.9 (≈ 17.8 µM) | 15.6 (≈ 35.1 µM) | 7.9 (≈ 17.8 µM) |  |  |  |  |  |  |  |  |  |  |  | hemolysis at 62.5 ug/mL [1]: 11.7%; hemolysis at 3.91 ug/mL [2]: 4.26% |
| OC(CCl)CNc1cccc(Cl)c1Cl (stereo unspecified) | 62.5 (≈ 246 µM) | 500 (≈ 1960 µM) | 62.5 (≈ 246 µM) | 62.5 (≈ 246 µM) | Non-toxic | 46.87 | 125 | 62.5 (≈ 246 µM) | 46.87 | 125 | 125 (≈ 491 µM) | 93.75 | 125 | 125 (≈ 491 µM) | 62.5 (≈ 246 µM) |  |
| OC(CCl)CNc1c(Cl)cccc1Cl (stereo unspecified) | 500 (≈ 1960 µM) | 500 (≈ 1960 µM) | 500 (≈ 1960 µM) | 125 (≈ 491 µM) | Non-toxic | 46.87 | 125 | 125 (≈ 491 µM) | 46.87 | 125 | 62.5 (≈ 246 µM) | 93.75 | 250 | 125 (≈ 491 µM) | 31.2 (≈ 123 µM) | inhibition at 31.25 µg/mL (Candida albicans [16]): 90% |
| OC(CCl)CNc1ccc(Cl)c(Cl)c1 (stereo unspecified) | 125 (≈ 491 µM) | 62.5 (≈ 246 µM) | 62.5 (≈ 246 µM) | 31.3 (≈ 123 µM) | Non-toxic | 11.71 | 31.2 | 31.2 (≈ 123 µM) | 23.43 | 62.5 | 31.2 (≈ 123 µM) | 46.87 | 62.5 | 62.5 (≈ 246 µM) | 125 (≈ 491 µM) | inhibition at 31.25 µg/mL (Pseudomonas aeruginosa [17]): 90% |
| C[C@@H]1[C@H](O)[C@@H](C)/C=C/C=C/C=C/C=C/C=C/C=C/C=C/[C@H](O[C@@H]2O[C@H](C)[C@@H](O)[C@H](N)[C@@H]2O)C[C@@H]2O[C@](O)(C[C@@H](O)C[C@@H](O)[C@H](O)CC[C@@H](O)C[C@@H](O)CC(=O)O[C@H]1C)C[C@H](O)[C@H]2C(=O)O (stereo in doubt) [AMPHOTERICIN B] |  |  |  |  |  | 0.73 | 1.95 | 1.95 (≈ 2.11 µM) | 0.73 | 1.95 | 1.95 (≈ 2.11 µM) | 0.73 | 1.95 | 1.95 (≈ 2.11 µM) |  | hemolysis at 62.5 ug/mL [1]: 100%; hemolysis at 3.91 ug/mL [2]: 5.52%; hemolysis at 1.7 ug/mL [18]: 50% |
| OC(CCl)CNc1cc(Cl)cc(Cl)c1 (stereo unspecified) | 250 (≈ 982 µM) | 125 (≈ 491 µM) | 31.3 (≈ 123 µM) | 62.5 (≈ 246 µM) | Non-toxic | 46.87 | 125 | 125 (≈ 491 µM) | 46.87 | 125 | 125 (≈ 491 µM) | 93.75 | 250 | 250 (≈ 982 µM) | 31.2 (≈ 123 µM) | inhibition at 31.25 µg/mL (Salmonella typhi [19]): 90%; inhibition at 31.25 µg/mL (Candida albicans [16]): 90% |
| OC(CCl)CNc1ccc(Cl)cc1 (stereo unspecified) | 500 (≈ 2270 µM) | 1000 (≈ 4540 µM) | 62.5 (≈ 284 µM) | 125 (≈ 568 µM) | Non-toxic | 5.85 | 15.6 | 15.6 (≈ 71 µM) | 11.71 | 31.2 | 15.6 (≈ 71 µM) | 23.43 | 31.2 | 31.2 (≈ 142 µM) | 62.5 (≈ 284 µM) | Activity [20]: Non-toxic; inhibition at 5.85 µg/mL (Aspergillus fumigatus [21]): 90% |
| OC(CCl)CNc1cccc(Cl)c1 (stereo unspecified) | 500 (≈ 2270 µM) | 1000 (≈ 4540 µM) | 500 (≈ 2270 µM) | 250 (≈ 1140 µM) | Non-toxic | 23.43 | 62.5 | 62.5 (≈ 284 µM) | 46.87 | 62.5 | 62.5 (≈ 284 µM) | 46.87 | 62.5 | 62.5 (≈ 284 µM) | 125 (≈ 568 µM) |  |
| OC(CCl)CNc1ccc(Cl)cc1Cl (stereo unspecified) | 125 (≈ 491 µM) | 500 (≈ 1960 µM) | 31.3 (≈ 123 µM) | 62.5 (≈ 246 µM) | Non-toxic | 23.43 | 62.5 | 62.5 (≈ 246 µM) | 46.87 | 125 | 62.5 (≈ 246 µM) | 93.75 | 125 | 125 (≈ 491 µM) | 62.5 (≈ 246 µM) | inhibition at 31.25 µg/mL (Salmonella typhi [19]): 90% |
| OC(CCl)CNc1cc(Cl)ccc1Cl (stereo unspecified) | 500 (≈ 1960 µM) | 250 (≈ 982 µM) | 250 (≈ 982 µM) | 62.5 (≈ 246 µM) | Non-toxic | 46.87 | 125 | 125 (≈ 491 µM) | 93.75 | 125 | 62.5 (≈ 246 µM) | 93.75 | 125 | 125 (≈ 491 µM) | 62.5 (≈ 246 µM) |  |
| OC(CCl)CNc1ccccc1Cl (stereo unspecified) | 250 (≈ 1140 µM) | 500 (≈ 2270 µM) | 250 (≈ 1140 µM) | 62.5 (≈ 284 µM) | Non-toxic | 11.71 | 31.2 | 31.2 (≈ 142 µM) | 23.43 | 63.5 | 31.2 (≈ 142 µM) | 23.43 | 62.5 | 62.5 (≈ 284 µM) | 250 (≈ 1140 µM) | inhibition at 5.85 µg/mL (Aspergillus fumigatus [21]): 90% |

From ChEMBL document CHEMBL1141569, “Synthesis and antimicrobial activity of 3-arylamino-1-chloropropan-2-ols” (Bioorg Med Chem Lett, 2008)
